The text below walks through data of patent publication US7387878B2, “Methods for DNA amplification and sequencing” (Yeda Research and Development Co. Ltd., priority 1998, dated 2008).

The target in data set [1] is T1, Taq DNA polymerase (Thermus aquaticus, UniProt P19821).
T1 construct: purchased MBI Fermentas
The note with it: DMSO in 10% concentration; cited from earlier work.

The next data set has as its system mammalian cells. The note with it: cited from earlier work.
The test system of data set [2] is [d(ATGCAT)]2 (SEQ ID NO:1). Nature of the data set: Thermal transition of short oligonucleotide by 1H NMR chemical shift. The conditions noted are these: for Tm: DNA alone 31.5. On the procedure:
(§1) ^1H NMR measurements were carried out on a Bruker AMX 400 NMR MHZ spectrometer at 400.13 MHZ (equipped with an Aspect 300 control). For the ^1H NMR measurements, 1.0 mM DNA oligonucleotides were dissolved in 0.5 ml phosphate buffer solution (pH 7.2) in D2O (20 mM, for [d(ATGCAT)]2 (SEQ ID NO:1) and 40 mM for [d([…])]2 (SEQ ID NO:2) containing 50 mM NaCl and 0.1 mM EDTA. The solutions were lyophilized and then redissolved in 0.5 ml D2O (99.96%), heated to 65 EC and gradually cooled to 5 EC, and then degassed with argon at room temperature.
(§2) The thermal transitions of the short oligonucleotides [d(ATGCAT)]2 (SEQ ID NO:1) (FIG. 4A) and [d([…])]2 (SEQ ID NO:2) (FIG. 4B) were studied in the absence (open squares) and presence of 0.5M (open circles) and 1.0M (filled squares) THP(B). NMR chemical shift changes of the C4H5 proton of [d(ATGCAT)]2 (SEQ ID NO:1) and of the G1H8 proton of [d([…])]2 (SEQ ID NO:2) were measured as a function of increasing temperatures as described in Materials and Methods section (iii).

Data set [3] deals with [d(GCTTAAGC)]2 (SEQ ID NO:2). Described as above. The note with it: for Tm: DNA alone 48.0. Here is the method: as §1, §2
Data set [4] deals with 349 b.p. fragment (66.5% GC content) from Halobacterium marismortui genomic DNA. Nature of the data set: PCR with THP(B) using Taq DNA polymerase. In kind it is biochemical. Here is the method:
MgCl2 concentrations of 1.0 mM and 1.75 mM were used in the absence and presence of THP(B), respectively, added from a 3M stock solution (pH 8.8 at 25° C.). […] (primer extension).
PCR reaction was performed by Taq DNA polymerase as described in Materials and Methods, section (vii), using as a template whole genomic DNA of Halobacterium marismortui (66.5% GC) and the 28-mer primers 1 and 2 described in section (i).

The next data set relates to poly(dA-dT). Nature of the data set: DNA melting (absorbance at 260 nm), poly(dA-dT). Here is the method:
(§3) DNA melting studies were conducted in a buffer (1 ml) containing 5.0 mM K2HPO4 and 0.1 mM Na2EDTA at pH 7.5. […] DNA samples were adjusted to O.D260=0.2 and incubated overnight at 37° C. before use, as previously described (Rees et al., 1993). […] The increase in absorbance at 260 nm was monitored in Hewlett Packard 9450A diode array spectrophotometer attached to a temperature programmer and controller. Both the sample and the reference cells were heated together at a rate of 0.5° C./min and the net absorbance was recorded after every 0.5° C. increase. The Tms were determined graphically from the midpoints of the absorbance versus temperature profile.

A further data set deals with animals. The conditions noted are these: cited from earlier work.
In another data set the test system is calf thymus DNA (42% GC). Nature of the data set: DNA melting (absorbance at 260 nm), calf thymus DNA. The note with it: 62° C. in aqueous solution. Here is the method: as §3
In data set [5] the target is T1, Taq DNA polymerase. The data set is described as follows: Remaining activity of Taq polymerase after incubation at elevated temperatures. In kind it is biochemical. The conditions noted are these: for remaining Taq polymerase activity: 1M additive. Here is the method:
THP(B), THP(A) or glycerol were added from 3M stock solutions (pH 8.8 at 25° C.). The reaction mixtures were overlaid with paraffin oil and incubated at 95° C. or 97° C. Aliquotes (7.5 μl) were taken for polymerase activity assay at different periods of time.

Data set [6] has as its system DNAs of varying base compositions. The data set is described as follows: DNA melting (absorbance at 260 nm), DNAs of varying base compositions. Here is the method:
as §3

In a further data set the target is T7 DNA polymerase (Escherichia phage T7, UniProt P00581). The note with it: 40% formamide; cited from earlier work.
Chain of T7 DNA polymerase (P0AA25 2-109): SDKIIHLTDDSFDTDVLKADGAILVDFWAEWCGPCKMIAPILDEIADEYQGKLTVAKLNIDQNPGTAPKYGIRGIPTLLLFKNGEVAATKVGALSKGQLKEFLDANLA
Chain of T7 DNA polymerase (P00581 whole entry): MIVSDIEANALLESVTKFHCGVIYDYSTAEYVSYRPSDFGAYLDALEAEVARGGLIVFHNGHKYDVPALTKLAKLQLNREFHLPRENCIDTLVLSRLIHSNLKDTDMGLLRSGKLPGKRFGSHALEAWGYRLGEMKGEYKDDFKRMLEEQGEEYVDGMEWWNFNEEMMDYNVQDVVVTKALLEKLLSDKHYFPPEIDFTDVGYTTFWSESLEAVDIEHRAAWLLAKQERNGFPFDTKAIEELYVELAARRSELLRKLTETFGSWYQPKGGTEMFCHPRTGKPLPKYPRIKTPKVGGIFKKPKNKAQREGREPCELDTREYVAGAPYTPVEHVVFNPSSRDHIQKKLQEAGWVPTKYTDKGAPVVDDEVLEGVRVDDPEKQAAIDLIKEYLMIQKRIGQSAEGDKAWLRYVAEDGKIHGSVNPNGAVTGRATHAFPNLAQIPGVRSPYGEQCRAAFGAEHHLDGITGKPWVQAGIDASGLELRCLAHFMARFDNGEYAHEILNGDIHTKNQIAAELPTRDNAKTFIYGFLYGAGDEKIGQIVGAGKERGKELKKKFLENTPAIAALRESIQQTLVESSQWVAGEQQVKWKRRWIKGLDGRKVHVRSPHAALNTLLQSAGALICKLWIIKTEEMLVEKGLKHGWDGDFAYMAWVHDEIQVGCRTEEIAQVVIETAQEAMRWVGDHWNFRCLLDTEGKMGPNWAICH
Data set [7] has as its system Micrococcus lysodeikticus DNA (72% GC). The conditions noted are these: 6.2M proline. Here is the method: as §3
Data set [8] deals with T2, Klenow DNA polymerase (Escherichia coli, UniProt P00582).
T2 construct: Klenow fragment of DNA polymerase I; purchased MBI Fermentas
T2 sequence (P00582 324-928): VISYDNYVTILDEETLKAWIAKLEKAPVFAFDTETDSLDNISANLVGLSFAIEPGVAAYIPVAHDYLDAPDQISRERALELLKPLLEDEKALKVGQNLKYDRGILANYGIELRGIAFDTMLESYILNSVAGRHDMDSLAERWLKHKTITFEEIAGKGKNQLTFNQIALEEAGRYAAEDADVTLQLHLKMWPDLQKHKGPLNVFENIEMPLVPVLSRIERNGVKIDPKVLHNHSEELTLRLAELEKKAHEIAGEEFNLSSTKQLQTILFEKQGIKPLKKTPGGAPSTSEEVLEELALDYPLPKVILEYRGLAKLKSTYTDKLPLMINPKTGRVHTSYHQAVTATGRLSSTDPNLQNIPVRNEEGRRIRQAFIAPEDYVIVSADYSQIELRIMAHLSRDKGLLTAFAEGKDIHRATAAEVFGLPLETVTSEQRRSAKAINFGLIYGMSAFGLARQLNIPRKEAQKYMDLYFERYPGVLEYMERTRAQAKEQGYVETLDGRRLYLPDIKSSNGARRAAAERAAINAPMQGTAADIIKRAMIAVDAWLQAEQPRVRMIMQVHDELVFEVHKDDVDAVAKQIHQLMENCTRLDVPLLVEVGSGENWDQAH
The data set is described as follows: Remaining activity of Klenow DNA polymerase after incubation at 65° C. The note with it: 5M proline. In kind it is biochemical. On the procedure:
(§4) Klenow fragment (0.1 units) was added to the microtubes with reaction mixture pre-heated to 37° C., and following 7.5 minutes incubation at 37° C. (a time-point within the region of linear kinetics determined in a separate experiment, not shown), the reaction microtubes were placed on ice, and the reaction was stopped by addition of 12 μl of 50 mM EDTA and then applied on strips of chromatographic paper (Whatman No. 3). Strips were washed three times by cold TCA 10%, dried and the radioactivity was counted.
The microtubes were vortexed and Klenow enzyme was added to the samples. The Klenow DNA polymerase activity assay was performed as described in section (iv) above at 6.7 mM concentration of MgCl2. To each aliquot (5 μl) 20 μl of stock solution containing all other components of the assay were added, making a total reaction volume of 25 μl and a 5-fold dilution of the aliquots.

The target of data set [9] is T2, Klenow DNA polymerase. The data set is described as follows: Klenow DNA polymerase activity assay at 37° C. Type of data set: biochemical. The note with it: for effect on Klenow polymerase activity: 1.0M additive, separate experiment, data not shown; for effect on Klenow DNA polymerase activity: 5.0M L-proline, 37° C., 6.7, 10.0 and 15.0 mM MgCl2. Here is the method: as §4

For data set [10], the system named is 349 b.p. fragment (66.5% GC) from Halobacterium marismortui genomic DNA. The note with it: 1.0M proline. On the procedure: PCR was performed in 25 μl reaction mixture containing 3 ng of Halobacterium marismortui genomic DNA template, 0.12 nM of each 28-mer oligonucleotide primers 3 and 4 described in section (i) above, 0.5 units of Taq DNA polymerase, 200 μM of each dNTP, in PCR buffer containing: 10 mM Tris-HCl (pH 8.8 at 25° C.), 50 mM KCl, 0.08% Nonidet P40. […] Reaction mixtures were preheated for 3 min at their respective denaturation temperatures, except for reactions performed at Td 95° C., that were preheated for 3 min at 94° C., and then subjected to 35 thermal cycles as follows: (I) 30 sec incubation at 91-95° C., as indicated in each experiment (denaturation step); (ii) 90 sec incubation at 55° C. (primer annealing step); and (iii) 60 sec incubation at 72° C. (primer extension).

For data set [11] the test system is unchanged. The conditions noted are these: 4.0M proline. On the procedure: PCR was performed in 25 μl reaction mixture containing 250 ng of Halobacterium marismortui genomic DNA template, 0.12 nM of each 30-mer oligonucleotide primers 5 and 6 described in section (i) above, 0.3 μl of Klentaq1 and Pfu (or Vent) enzymes mixture, prepared as described (Barnes, 1994), 200 μM of each dNTP, in PCR buffer containing: 10 mM Tris-HCl (pH 8.3 at 25° C.) and 50 mM KCl. […] Reaction mixtures were preheated for 1 min at their respective denaturation temperatures, except for reactions performed at Td 95° C., that were preheated for 1 min at 94° C., and then subjected to 35 thermal cycles as follows: (I) 30 sec incubation at 72-95° C., as indicated in each experiment (denaturation step); (ii) 90 sec incubation at 37-55° C., as indicated in each experiment (primer annealing step); and (iii) 7 min incubation at 63-69° C., as indicated in each experiment (primer extension).
Reaction mixtures were preheated for 1 min at their respective denaturation temperatures (77° C. and 75° C.), and then subjected to 35 thermal cycles as follows: (i) 30 sec incubation at 77° C. or 75° C. (denaturation step); (ii) 90 sec incubation at 44° C. (primer annealing step); and (iii) 7 min incubation at 65° C. (primer extension).

Data set [12] has the same test system. The conditions noted are these: PCR with 10-15 units Klenow, denaturation 70° C., FIG. 12.
The subject of a further data set is DNA. The note with it: for each 10% increase in glycerol concentration; cited from earlier work.
For a further data set, the target named is Taq polymerase (Thermus aquaticus, UniProt P19821). The conditions noted are these: 95-97° C.; cited from earlier work.
Chain of Taq polymerase (P19821 whole entry): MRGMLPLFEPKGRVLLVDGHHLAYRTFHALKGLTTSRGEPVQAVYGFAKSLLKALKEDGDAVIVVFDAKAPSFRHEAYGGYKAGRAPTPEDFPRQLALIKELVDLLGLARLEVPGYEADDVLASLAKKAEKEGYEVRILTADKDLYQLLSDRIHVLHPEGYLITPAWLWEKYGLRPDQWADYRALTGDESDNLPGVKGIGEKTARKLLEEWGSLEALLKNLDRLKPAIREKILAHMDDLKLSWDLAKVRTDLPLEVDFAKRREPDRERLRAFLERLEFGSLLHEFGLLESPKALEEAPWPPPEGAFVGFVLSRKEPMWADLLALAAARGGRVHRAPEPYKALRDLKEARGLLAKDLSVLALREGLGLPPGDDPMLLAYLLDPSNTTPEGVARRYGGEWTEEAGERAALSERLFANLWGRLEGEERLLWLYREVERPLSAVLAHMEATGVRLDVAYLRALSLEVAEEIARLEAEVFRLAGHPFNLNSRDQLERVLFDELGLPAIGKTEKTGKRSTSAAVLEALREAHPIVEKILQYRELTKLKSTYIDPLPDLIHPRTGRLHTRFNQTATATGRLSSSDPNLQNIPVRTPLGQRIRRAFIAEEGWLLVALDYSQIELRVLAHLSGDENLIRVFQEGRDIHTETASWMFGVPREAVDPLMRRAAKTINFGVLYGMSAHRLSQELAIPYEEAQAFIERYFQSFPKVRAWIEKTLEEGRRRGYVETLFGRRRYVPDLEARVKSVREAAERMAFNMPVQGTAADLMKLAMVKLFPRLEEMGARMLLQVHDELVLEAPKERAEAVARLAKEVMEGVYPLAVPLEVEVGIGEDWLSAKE
Setting [13] is: 30 min incubation at 97° C., 10% without additives.
Where [14] appears, read: 60 min incubation at 97° C., 5% or less without additives.

Several values for one entry are separate records, joined by “and”; a condition that tells them apart may be missing. Equal entries are not always repeated. Entries after “also recorded” stand apart in the source; their conditions may differ. Where two headings read alike, the source gives them in different places.

T1 sequence (P19821 whole entry): as above

Turning to `C[S+](C)[O-]` [DMSO], at Taq DNA polymerase [1], the “inhibition of Taq DNA polymerase activity” value is listed as 53%.
Take `CC1=NCCC(C(=O)O)N1` (stereo not shown) [THP(B), 2-methyl-4-carboxy-3,4,5,6-tetrahydropyrimidine]: the toxicity entry in the data set on mammalian cells and with animals (in vivo) was “not toxic” in each case. The “decrease of melting temperature” value came out at 2 EC in data set [2] (0.5M additive), 3.5 EC in [2] (1.0M additive), 3 EC in data set [3] (0.5M additive) and 6 EC in [3] (1.0M additive). For the same molecule, the Tm worked out at 29.5 °C in data set [2] (0.5 M additive), 28.0 °C in data set [2] (1.0 M additive), 45.0 °C in data set [3] (0.5 M additive) and 42.0 °C in data set [3] (1.0 M additive). Further, the PCR amplification result in [4] (0.5M THP(B), Td 92° C.) is “amplified sequences were produced only in the presence of THP(B)”; in [4] (1.0M THP(B), Td 89° C., 0.5 units Taq), “markedly lower”; in data set [4] (1.0M THP(B), Td 90° C., 0.5 or 0.75 units Taq) it was “specific amplified sequence was generated only in the presence of THP(B)”; in data set [4] (1.0M THP(B), Td 95° C.), “improved PCR specific amplification”. For the same molecule, the “yield and specificity of DNA amplification” value in [4] (0.5M THP(B), Td 95° C. and 92° C.) is “improved”. Moreover, the “change in melting temperature of poly(dA-dT)” value in the data set with poly(dA-dT) (1-4M THP(B)) is given as “did not exhibit any change; also recorded: no change”. In the data set on calf thymus DNA (42% GC) (3 or 4M THP(B)), the DNA melting temperature stood at 41 °C. The “remaining Taq polymerase activity” value on Taq DNA polymerase [5] (setting [13]) amounted to 40%; on Taq DNA polymerase [5] (setting [14]), 20%. Moreover, in [6] (4M THP(B), 39 to 75° C. in its absence), the “temperature range in which all DNAs melt” value is 40-43 °C.
`NC=O` [formamide]: the “T7 DNA polymerase activity” value on T7 DNA polymerase is “completely inactive”.
`O=C(O)[C@@H]1CCCN1` [proline, L-Proline]: the “range of melting higher than DNAs of GC content 42% and 26%” value in data set [7] is “about 5 °C”. Besides, on Klenow DNA polymerase [8], the “half life of Klenow DNA polymerase relative to no additive” value is recorded as 30-50 fold. At Klenow DNA polymerase [9], the “effect on Klenow polymerase activity” value is “stimulative”. In addition, the “effect on Klenow DNA polymerase activity” value at Klenow DNA polymerase [9] (listed as L-proline) was “only slightly decreased”; on Klenow DNA polymerase [9] (listed as Proline), “only slightly decrease”. For the same molecule, the “change in melting temperature of poly(dA-dT)” value in the data set on poly(dA-dT) (1-5M proline) is reported as “did not exhibit any change”; with poly(dA-dT) (5-6.2M proline), “small effect”. Further, in the data set with poly(dA-dT) (6.2M proline), the “melting lower than DNAs of GC content 42% and 26%” value was “about 15 °C”. Besides, the PCR performance entry is “enabled successful PCR” in [10] (denaturation temperature 91° C.), “did not impair PCR performance” in data set [10] (denaturation temperature 95° C.), “but not at 75 °C” in data set [11] (denaturation temperature 75° C.) and “enough for successful PCR” in data set [11] (denaturation temperature 77° C.). In the data set on calf thymus DNA (42% GC) (6.2M proline), the DNA melting temperature was 27 °C. For the same molecule, the “proline concentration sufficient to confer stability to Klenow polymerase (and conduct successful PCR)” value in data set [12] is 3-5.5 M. Also, in data set [6] (6.2M proline, 38 to 78° C. in its absence), the “temperature range in which all DNAs melt” value was 25-32 °C. The “Tm values of the tested natural DNAs” value in data set [6] (6.2 M proline, 57-78° C. without) was 28-32 °C.
On to `C[N+](C)(C)CC(=O)O` [betaine, Betaine, reference compound], for which the Tm in data set [2] (1.0 M additive) stood at 29.2 °C. Further, the “decrease of melting temperature” value in data set [3] (1.0M additive) is −2 EC.
For the molecule `OCC(O)CO` [glycerol], the “effect on Klenow polymerase activity” value at Klenow DNA polymerase [9] is listed as “stimulative”. The “lowering of DNA melting temperatures” value in the data set on DNA is 2.5-3 °C. For the same molecule, the “thermal stability of Taq polymerase” value on Taq polymerase was “doubling”.
For the molecule `CC1=NCC(O)C(C(=O)O)N1` (stereo not shown) [THP(A), 2-methyl-4-carboxy-5-hydroxy-3,4,5,6-tetrahydropyrimidine], the toxicity entry with mammalian cells (mammalian cells) and with animals (animals) was “not toxic” in each case. Further, at Taq DNA polymerase [5] (97° C., 1M additives, FIG. 5), the “effectiveness in stabilizing Taq DNA polymerase (comparison)” value is “more effective than THP(B) or glycerol”. Also, the “remaining Taq polymerase activity” value is 50% and 55% on Taq DNA polymerase [5] (setting [13]); 45% and 55% at Taq DNA polymerase [5] (setting [14]). Moreover, the “remaining Taq activity relative to no additives” value at Taq DNA polymerase [5] (60 min incubation at 97° C.) is given as 10 fold.
